This is an account of results in US20230285383A1, “TREATMENT OF SKIN DISEASES” (Ichilov Tech Ltd., priority 2020, published 2023).

Test [1] concerns SAMD9. Description: SAMD9 expression by qRT-PCR in TERC-transformed fibroblasts. Type of test: cell-based, human. Conditions: 5 μM, 24 hours, relative to DMSO. How it is done: TERC-transformed fibroblasts were transformed with a pBABE-H2AGFP construct containing the human telomerase gene were cultured High Glucose DMEM, 10% FCS, L-glutamine and Pen-Strep (all cell culture regents from Biological Industries, Israel). Medium was changed every 2-3 days. Cells were used at passage 2-3.
(§1) Of note, when cells were incubated with CPT and CPT-11, they were grown in the appropriate medium with 0.1% FCS only.
RNA was extracted from cell cultures using an RNA extraction kit (Roche Diagnostics, Mahheim, Germany). cDNA was synthesized from 500 ng of total RNA using the Verso cDNA kit (Thermo Fisher Scientific, Waltham, Mass., USA) or qScript kit (Quanta Biosciences, Gaithersburg, Md., USA). cDNA PCR amplification was carried out using the Fast SYBR Green Master Mix in a StepOnePlus™ Real-Time PCR System (Applied Biosystems, Foster City, Calif., USA) with gene-specific intron-crossing oligonucleotide pairs listed in Table 1 (below). For quantification, standard curves were obtained using serially diluted cDNA amplified in the same qRT-PCR run. The melting temperature (Tm) of the amplified products was measured to confirm the specificity of the reaction conditions. […] Each sample was analyzed in triplicate. mRNA expression level for target gene was normalized to GAPDH. […] The expression levels of target genes were expressed as mRNA relative units. […]
A general note: In qPCR the cycle at which signal appears reflects the starting amount.

Test [2] concerns SAMD9. Description: SAMD9 expression by qRT-PCR in primary fibroblasts. Type of test: cell-based, human. On the procedure: Primary fibroblasts were isolated from human adult skin and were grown in High Glucose DMEM, 10% Fetal Bovine Serum, L-glutamine and Pen-Strep. Medium was changed every 2-3 days. Cells were used at passage 2-3.
as §1
RNA was extracted from cell cultures using an RNA extraction kit (Roche Diagnostics, Mahheim, Germany). cDNA was synthesized from 500 ng of total RNA using the Verso cDNA kit (Thermo Fisher Scientific, Waltham, Mass., USA) or qScript kit (Quanta Biosciences, Gaithersburg, Md., USA). cDNA PCR amplification was carried out using the Fast SYBR Green Master Mix in a StepOnePlus™ Real-Time PCR System (Applied Biosystems, Foster City, Calif., USA) with gene-specific intron-crossing oligonucleotide pairs listed in Table 1 (below). For quantification, standard curves were obtained using serially diluted cDNA amplified in the same qRT-PCR run. The melting temperature (Tm) of the amplified products was measured to confirm the specificity of the reaction conditions. […] Each sample was analyzed in triplicate. mRNA expression level for target gene was normalized to GAPDH. The results are based the amount of target, normalized to an endogenous reference (IACTB) and relative to a calibrator, as calculated by 2-ΔΔCT. […]
SAMD9 expression was measured via qRT-PCR, in triplicates. […]

A further test has as its system HeLa cells. Description: RNA sequence analysis of HeLa cells treated with CPT. The format is cell-based, human. Conditions: 10 μM, 48 hours. On the procedure:
FIG. 10A presents RNA-seq analysis of HeLa cells treated with CPT. HeLa cells were treated with 10 μM CPT or DMSO for 48 hours (three independent experiments). Total RNA was extracted and sent to RNA-seq. Volcano plot represents the number of genes that were differentially expressed. […] P-value for enrichment for genes belongs to a known psoriasis related pathogenic pathways (taken from IPA database) was calculated using hypergeometric distribution (using a background of 24190 genes).
HeLa cells were treated with 10 μM CPT or DMSO for 48 hours (three independent experiments). Total RNA was extracted and sent to RNA-sequencing.
The obtained data is presented in FIGS. 10A-B. FIG. 10A presents a volcano plot that show the number of statistically significant differential gene (DE) as response to CPT treatment. […] In addition, calculation of p-value for enrichment for genes belongs to a known psoriasis related pathogenic pathways (taken from IPA database) using hypergeometric distribution (using a background of 24190 genes). The table in FIG. 10B summarizes the number of genes in each group, the number of differentially expressed genes, the overlap, and the adjusted p-value (after correcting for multiple testing).

Another test relates to EGR1. Description: EGR1 expression by qRT-PCR in Hela cells. Type of test: cell-based, human. How it is done:
(§2) HeLa cells were cultured in DMEM 4.5 g/l glucose medium containing 10% FCS, 1% L-glutamine and 1% penicillin and streptomycin (Biological Industries) and grown at 37° C. and 5% CO2.
as §1
(§3) RNA was extracted from cell cultures using an RNA extraction kit (Roche Diagnostics, Mahheim, Germany). cDNA was synthesized from 500 ng of total RNA using the Verso cDNA kit (Thermo Fisher Scientific, Waltham, Mass., USA) or qScript kit (Quanta Biosciences, Gaithersburg, Md., USA). cDNA PCR amplification was carried out using the Fast SYBR Green Master Mix in a StepOnePlus™ Real-Time PCR System (Applied Biosystems, Foster City, Calif., USA) with gene-specific intron-crossing oligonucleotide pairs listed in Table 1 (below). For quantification, standard curves were obtained using serially diluted cDNA amplified in the same qRT-PCR run. The melting temperature (Tm) of the amplified products was measured to confirm the specificity of the reaction conditions. […] Each sample was analyzed in triplicate. mRNA expression level for target gene was normalized to GAPDH. The results are based the amount of target, normalized to an endogenous reference (IACTB) and relative to a calibrator, as calculated by 2-ΔΔCT. […] The expression levels of target genes were expressed as mRNA relative units. […]

The subject of test [3] is imiquimod-induced psoriasiform dermatitis. Description: Imiquimod-induced psoriasiform dermatitis in mice. Type of test: in vivo, Balb/c mice. Conditions: 7.5 mg/Kg i.p., biopsies at day 6, vs vehicle. On the procedure: Balb/c mice (Harlan Laboratories Ltd, Jerusalem, Israel), 9 weeks of age, were maintained in a pathogen-free animal facility. Animal care and research protocols had been approved by the institutional committee for animal use. Imiquimod 5% (Perrigo, Israel) was topically applied to the mice on their upper backs.
(§4) Formaldehyde-fixed 5-μm paraffin-embedded sections from skin biopsies were deparaffinized and treated with 3% H2O2 in methanol for 15 minutes at room temperature, warmed in a microwave oven in citrate buffer in a pressure cooker for 25 minutes, and stained with a monoclonal anti-Ki67 antibody (Thermo Scientific) for 1 hour at room temperature. Following 3 washings (10 minutes each) with phosphate-buffered saline (PBS), the antibodies were imaged using the ABC technique (Zymed Laboratories, South San Francisco, Calif.) and the slides were counterstained with hematoxylin.
Epidermal thickness was defined as the distance between the granular layer and the basement membrane and was measured at 10 randomly selected locations for each biopsy using NIS-Elements BR 3.2 software (Nikon, NY USA). An image was taken and was manually measured in the software by selecting an upper and lower border, as defined above. The distance was measured in microns. […]

The next test has as its system human psoriatic skin. Description: Chimeric mice carrying human psoriatic skin. Type of test: in vivo, SCID mice. Conditions: i.p., 10 days; CPT 3 mg/kg five times a week; CPT-11 30 or 50 mg/kg three times a week.
Description: Chimeric mice carrying human psoriatic skin were generated using SCID mice, 2-3 months of age. Animals were maintained in a pathogen-free animal facility. A psoriasis-like phenotype was induced in normal human skin grafted onto the mice by intradermal injection of natural killer/T cells derived from psoriatic patients as previously described [Gilhar A et al. J Invest Dermatol (2011) 131: 118-124].
as §4
Epidermal thickness was defined as the distance between the granular layer and the basement membrane and was measured at 10 randomly selected locations for each biopsy using NIS-Elements BR 3.2 software (Nikon, NY USA). An image was taken and was manually measured in the software by selecting an upper and lower border, as defined above. The distance was measured in microns.
To assess the potential therapeutic role of the compounds of some embodiments of the invention, the two compounds were administered systemically (i.p) to chimeric mice carrying human psoriatic skin.
In short, SCID mice, 2-3 months of age, were maintained in a pathogen-free animal facility. A psoriasis-like phenotype was induced in normal human skin grafted onto the mice by intradermal injection of natural killer/T cells derived from psoriatic patients as previously described [Gilhar A et al. J Invest Dermatol (2011) 131: 118-124].
Two weeks after natural killer/T-cell injection (6 weeks after human skin grafting), mice were injected i.p. five times a week. Five groups of mice were treated as follows: one group of mice was injected five times a week with the vehicle (10% DMSO in […] was used as a vehicle control); a second group of mice was injected five times a week CPT (3 mg/kg); a third group of mice was injected three times a week CPT-11 (50 mg/kg); a fourth group of mice was injected three times a week CPT-11 (30 mg/kg); and a fifth group of mice, was treated with dexamethasone (DEX) cream applied 5 times a week on the graft, as positive control (DEX was expected to attenuate inflammation in this model). Each group included six mice, and the treatment was performed for a total of 10 days. The grafts were harvested from the five groups of mice, paraffin-embedded, stained for hematoxylin and eosin (H&E), analyzed and scored for the average improvement of the clinical and histological psoriasiform phenotype.

Test [4] concerns SAMD9. Description: SAMD9 expression by qRT-PCR in HeLa cells. The format is cell-based, human. How it is done:
as §2, §1, §3

The mark [5] stands for this setting: Hela cells, 1-10 μM for 48 hours, or 10 μM for 48 and 72 hours.

For the molecule `CC[C@@]1(O)C(=O)OCc2c1cc1n(c2=O)Cc2cc3ccccc3nc2-1` [CPT, Camptothecin], in the test on SAMD9 [1], the SAMD9 expression entry was “significant induction of SAMD9 expression”. Besides, the “SAMD9 expression, dose dependence” value in the test with SAMD9 [2] (1 μM, 2 μM, 5 μM and 10 μM) is recorded as “up-regulate SAMD9 expression in a dose dependent manner”. Further, the SAMD9 expression entry with SAMD9 [2] (5 μM, 24 hours, relative to DMSO) is reported as “significant induction of SAMD9 expression”. Moreover, the “expression of genes of psoriasis related pathways” value in the test on HeLa cells (enrichment by hypergeometric distribution) was “significant turnover in expression of many genes belongs to psoriasis related pathways”. In the test with HeLa cells (vs DMSO, FDR<0.01), the “number of genes downregulated” value is reported as 1192 and the “number of genes upregulated” value worked out at 1664. Besides, in the test on EGR1 (10 μM, 24, 48 and 72 hours, result sentence prints primary fibroblast cells, method Hela cells), the EGR1 expression entry was “significantly down-regulated EGR1 expression”. Besides, in test [3], the epidermal thickness entry was “decrease in epidermal thickness” and the “index of proliferation (Ki67)” value is “decrease”. Besides, in the test with human psoriatic skin, the “clinical and histological psoriasiform phenotype” value was “significant clinical and histological attenuation of the psoriasiform phenotype”; the epidermal thickness result is “significant decrease”; the inflammation index result is “significant decrease”; the “keratinocyte proliferation (Ki67)” value is “significant decrease”. Besides, the SAMD9 expression entry with SAMD9 [4] (HeLa cells, 5 μM, 24 hours, relative to DMSO) is listed as “significant induction of SAMD9 expression”.
For `CCc1c2c(nc3ccc(OC(=O)N4CCC(N5CCCCC5)CC4)cc13)-c1cc3c(c(=O)n1C2)COC(=O)[C@]3(O)CC` [CPT-11, Irinotecan], in the test on EGR1 (setting [5]), the EGR1 expression entry was “substantial down-regulation of EGR1”. Besides, in the test with human psoriatic skin, the “clinical and histological psoriasiform phenotype” value was “significant clinical and histological attenuation of the psoriasiform phenotype”; the epidermal thickness entry is reported as “significant decrease”; the inflammation index entry was “significant decrease”; the “keratinocyte proliferation (Ki67)” value is reported as “significant decrease”. Also, in the test on SAMD9 [4] (setting [5]), the SAMD9 expression entry is “substantial induction of SAMD9 expression”.
